Test [1] deals with HUVEC cell line. The experiment in a line: Cell adhesion inhibition, fibronectin (FN) as ligand (αv-integrin independent control), HUVEC. Type of test: cell-based, human. Here is the method:
(§1) Figure 1. […] A) Using vitronectin (VN) as ligand. B) Using fibrinogen (FB) as ligand. Figure 2. […] Figure 3. […] A) Using fibronectin (FN) as ligand. B) Using collagen (COL) as ligand.
(§2) Biological experiments. Cells were grown in DMEM High Glucose (GIBCO, Ref: 31966), supplemented with 10% FCS (GIBCO, 10106-169) at 37°C and 5% CO2. Cells were expanded when they reached 90% confluence. Non-tissue culture treated ELISA plates were coated at 4°C with the appropriate concentration of the ligand (depending on the cell line). The coating solution was discarded and the wells were blocked with blocking solution (1.5% BSA; 60 minutes at 37°C). The blocking solution was discarded by flicking and serial dilutions of the compounds were plated in duplicates. Immediately, harvested cells were plated at a given concentration (20000-25000 /well for HUVEC and DAOY and 50000 for HT-29) to the same plate. Plates were incubated for 60-90 min at 37°C to allow cell adhesion and spreading on the ligands. […] Adsorption was read at OD 405nm.
(§3) Each plate contains positive and negative controls and peptides were tested as duplicates. Each assay has been repeated at least twice and the adhesion inhibition EC50 was calculated, when possible, using the Prism-4 software based on the sigmoidal dose-response (variable slope) equation. […]

The next test concerns DAOY (αvβ3). The experiment in a line: Cell adhesion inhibition, fibrinogen (FB) as ligand, DAOY. Type of test: cell-based, human. To be noted: coating 5.0 µg/ml, read-out: Adhesion inhibition - EC-50. Here is the method: (§4) Biological experiments. Cells were grown in DMEM High Glucose (GIBCO, Ref: 31966), supplemented with 10% FCS (GIBCO, 10106-169) at 37°C and 5% CO2. Cells were expanded when they reached 90% confluence. Non-tissue culture treated ELISA plates were coated at 4°C with the appropriate concentration of the ligand (depending on the cell line). The coating solution was discarded and the wells were blocked with blocking solution (1.5% BSA; 60 minutes at 37°C). The blocking solution was discarded by flicking and serial dilutions of the compounds were plated in duplicates. Immediately, harvested cells were plated at a given concentration (20000-25000 /well for HUVEC and DAOY and 50000 for HT-29) to the same plate. Plates were incubated for 60-90 min at 37°C to allow cell adhesion and spreading on the ligands. Plates were washed three times with PBS and 100 µl/well of Hexosaminidase Substrate solution was added. Plates were incubated at 37°C during 3 hours and then stop solution was added. Adsorption was read at OD 405nm.
(§5) Each plate contains positive and negative controls and peptides were tested as duplicates. Each assay has been repeated at least twice and the adhesion inhibition EC50 was calculated, when possible, using the Prism-4 software based on the sigmoidal dose-response (variable slope) equation.
(§6) The different RDG derivates based on thiazole-amino acid structures were tested for their biological activity such as inhibition of cell adhesion using three different cell systems and three integrin ligands for each cell line (vitronectin (VN), fibrinogen (FB) and fibronectin (FN) and collagen (COL)). The cell lines used for the study were: DAOY human […] cells and HUVEC human umbilical vein endothelial cells as primary cell culture, which overexpresses in both members, αvβ3 and αvβ5, of the αv-integrin family, and HT29 human colon adenocarcinoma, which overexpresses in both members, αvβ5 and αvβ6, of the αv-integrin family. […]

Another test concerns HT-29 (αvβ5). The experiment in a line: Cell adhesion inhibition, vitronectin (VN) as ligand, HT-29. Type of test: cell-based, human. To be noted: for EC50: VN ligand, HT-29, coating 4.0 µg/ml, read-out: Adhesion inhibition - EC-50; for blocking activity against αvβ5: HT29-VN cell system. The procedure: as §4, §5
(§7) The different RDG derivates based on thiazole-amino acid structures were tested for their biological activity such as inhibition of cell adhesion using three different cell systems and three integrin ligands for each cell line (vitronectin (VN), fibrinogen (FB) and fibronectin (FN) and collagen (COL)). The cell lines used for the study were: DAOY human […] cells and HUVEC human umbilical vein endothelial cells as primary cell culture, which overexpresses in both members, αvβ3 and αvβ5, of the αv-integrin family, and HT29 human colon adenocarcinoma, which overexpresses in both members, αvβ5 and αvβ6, of the αv-integrin family.
(§8) In the experiments using VN as integrin ligand, both HUVEC and DAOY cells use αvβ3 and αvβ5 to adhere to VN; while HT29 cells use only αvβ5 to adhere to VN. In contrast, in the experiments using FB as integrin ligands, both HUVEC and DAOY cells use αvβ3 to adhere to FB, and the experiments using FN and COL were to control that the compounds could no inhibit the independent cell adhesion.

A further test has as its system HUVEC (αvβ3/αvβ5). The experiment in a line: Cell adhesion inhibition, vitronectin (VN) as ligand, HUVEC. In kind it is cell-based, human. To be noted: coating 0.75 µg/ml, read-out: Adhesion inhibition - EC-50. The procedure:
as §4, §5, §7, §8

For test [2], the system named is HUVEC cell line. The experiment in a line: Cell adhesion inhibition, collagen (COL) as ligand (αv-integrin independent control), HUVEC. Type of test: cell-based, human. Here is the method:
as §1, §2, §3

The subject of the next test is DAOY (αvβ3 /αvβ5). The experiment in a line: Cell adhesion inhibition, vitronectin (VN) as ligand, DAOY. Type of test: cell-based, human. To be noted: coating 0.5 µg/ml, read-out: Adhesion inhibition - EC-50. Here is the method: as §4, §5, §6
Test [3] relates to HUVEC cell line. The experiment in a line: Inhibition of cell adhesion, first series of experiments, HUVEC cell line (ligand not specified). In kind it is cell-based, human. The following applies: for biological activity (inhibition of cell adhesion), in words: HUVEC cell line, first series of experiments. The procedure: as §4, §5, §7
In the first series of experiments compounds 1-5 were tested using HUVEC cell line showing that only compounds 4 and 5 were active.

In another test the target is HUVEC (αvβ3) (Homo sapiens, UniProt P05106+P06756). The experiment in a line: Cell adhesion inhibition, fibrinogen (FB) as ligand, HUVEC. In kind it is cell-based. The following applies: from adhesion of the HUVEC and DAOY cells to FB.
Sequence of HUVEC (αvβ3) (P06756 31-1048): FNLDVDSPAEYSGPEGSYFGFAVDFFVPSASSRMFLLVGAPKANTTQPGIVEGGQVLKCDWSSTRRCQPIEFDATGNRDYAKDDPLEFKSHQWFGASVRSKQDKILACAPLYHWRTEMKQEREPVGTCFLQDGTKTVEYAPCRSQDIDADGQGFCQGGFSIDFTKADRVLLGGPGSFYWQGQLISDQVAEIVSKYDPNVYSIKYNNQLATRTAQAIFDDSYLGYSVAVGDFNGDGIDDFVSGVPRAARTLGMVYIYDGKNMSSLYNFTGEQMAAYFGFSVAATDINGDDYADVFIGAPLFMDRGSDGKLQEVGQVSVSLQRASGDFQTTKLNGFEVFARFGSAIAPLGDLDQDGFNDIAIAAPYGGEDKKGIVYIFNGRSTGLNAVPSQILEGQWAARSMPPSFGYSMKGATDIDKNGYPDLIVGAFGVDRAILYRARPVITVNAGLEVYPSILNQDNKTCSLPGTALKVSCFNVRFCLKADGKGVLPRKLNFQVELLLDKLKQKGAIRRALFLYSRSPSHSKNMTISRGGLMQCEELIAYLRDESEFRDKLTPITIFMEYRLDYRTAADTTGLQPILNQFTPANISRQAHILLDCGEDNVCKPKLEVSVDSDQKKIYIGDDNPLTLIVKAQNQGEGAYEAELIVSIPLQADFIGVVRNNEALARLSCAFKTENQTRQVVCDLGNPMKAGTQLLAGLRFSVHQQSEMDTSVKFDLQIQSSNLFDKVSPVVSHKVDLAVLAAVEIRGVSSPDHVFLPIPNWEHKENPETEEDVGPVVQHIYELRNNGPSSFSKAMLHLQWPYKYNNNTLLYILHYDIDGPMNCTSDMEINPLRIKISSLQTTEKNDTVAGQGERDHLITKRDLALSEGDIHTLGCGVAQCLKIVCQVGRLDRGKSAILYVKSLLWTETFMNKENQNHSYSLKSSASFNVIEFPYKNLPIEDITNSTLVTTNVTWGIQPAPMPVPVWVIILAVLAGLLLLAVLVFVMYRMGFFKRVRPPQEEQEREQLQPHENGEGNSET
Sequence of HUVEC (αvβ3) (P05106 27-788): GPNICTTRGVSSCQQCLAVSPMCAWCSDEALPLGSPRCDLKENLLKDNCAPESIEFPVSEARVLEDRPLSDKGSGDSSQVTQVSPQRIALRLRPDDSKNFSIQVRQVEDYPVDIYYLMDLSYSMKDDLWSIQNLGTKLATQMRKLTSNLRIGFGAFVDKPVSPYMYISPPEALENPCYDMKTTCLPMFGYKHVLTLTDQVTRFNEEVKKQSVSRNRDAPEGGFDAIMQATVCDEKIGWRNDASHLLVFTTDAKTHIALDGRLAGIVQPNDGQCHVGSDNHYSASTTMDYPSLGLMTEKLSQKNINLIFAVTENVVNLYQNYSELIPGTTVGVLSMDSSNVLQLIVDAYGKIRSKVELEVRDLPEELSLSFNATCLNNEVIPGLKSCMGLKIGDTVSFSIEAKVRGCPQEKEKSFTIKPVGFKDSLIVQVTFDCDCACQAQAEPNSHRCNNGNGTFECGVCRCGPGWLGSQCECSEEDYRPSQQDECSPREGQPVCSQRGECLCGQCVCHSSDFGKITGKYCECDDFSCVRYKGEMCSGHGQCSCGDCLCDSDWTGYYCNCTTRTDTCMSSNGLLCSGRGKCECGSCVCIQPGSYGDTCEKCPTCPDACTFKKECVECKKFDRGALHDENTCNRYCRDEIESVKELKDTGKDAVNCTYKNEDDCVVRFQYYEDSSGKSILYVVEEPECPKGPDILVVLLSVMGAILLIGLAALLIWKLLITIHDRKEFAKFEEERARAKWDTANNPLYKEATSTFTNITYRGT

As to `CC(C)[C@H]1C(=O)N[C@@H](CCCNC(=N)N)C(=O)NCC(=O)N[C@@H](CC(=O)O)C(=O)N[C@H](Cc2ccccc2)C(=O)N1C` [Cilengitide, reference compound], in the test with HUVEC cell line [1], the “inhibit cell adhesion to αv-integrin independent cell adhesion (FN coating)” value was “none of the compounds, including the reference one (Cilengitide) would inhibit cell adhesion”. Also, the EC50 in the test on DAOY (αvβ3) came to 0.059 µM; in the test with HT-29 (αvβ5), 2.24 µM; in the test on HUVEC (αvβ3/αvβ5), 0.56 µM; in the test on DAOY (αvβ3 /αvβ5), 0.068 µM. In addition, the “inhibit cell adhesion to αv-integrin independent cell adhesion (COL coating)” value in the test with HUVEC cell line [2] is “none of the compounds, including the reference one (Cilengitide) would inhibit cell adhesion”.

With `N=C(N)NCCC[C@@H]1NC(=O)c2csc(n2)CNC(=O)[C@H](CC(=O)O)NC(=O)CNC1=O` [Compound 3, Cyclo-[Arg-Gly-Asp-Thz1X-]], the “activity in all cell systems used in the study, in words” value in the test on HUVEC cell line [3] (all cell systems used, compound 3 has values for HUVEC only) is “inactive”. For the same compound, the EC50 with HUVEC (αvβ3/αvβ5) was found to be 31.1 µM.

As for `N=C(N)NCCC[C@@H]1NC(=O)c2csc(n2)-c2csc(n2)CNC(=O)[C@H](CC(=O)O)NC(=O)CNC1=O` [Compound 4, Cyclo-[Arg-Gly-Asp-Thz2X-]], the “biological activity (inhibition of cell adhesion), in words” value with HUVEC cell line [3] was “active”. For the same compound, the EC50 in the test with DAOY (αvβ3) was 0.082 µM; with HT-29 (αvβ5), 53.2 µM; with HUVEC (αvβ3/αvβ5), 7.46 µM; with DAOY (αvβ3 /αvβ5), 5.71 µM. In the test with HT-29 (αvβ5), the “blocking activity against αvβ5” value is reported as “no blocking activity”. Also, the “selectivity for the αvβ3 integrin, in words” value at HUVEC (αvβ3) is “selective antagonists of the αvβ3 integrin”.

With `N=C(N)NCCC[C@@H]1NC(=O)c2csc(n2)-c2csc(n2)-c2csc(n2)CNC(=O)[C@H](CC(=O)O)NC(=O)CNC1=O` [Compound 5, Cyclo-[Arg-Gly-Asp-Thz3X-]], the “biological activity (inhibition of cell adhesion), in words” value with HUVEC cell line [3] is on record as “active”. Further, the EC50 came to 1.86 µM in the test on DAOY (αvβ3), 59.1 µM in the test on HT-29 (αvβ5), 63.8 µM with HUVEC (αvβ3/αvβ5) and 6.8 µM with DAOY (αvβ3 /αvβ5). The “blocking activity against αvβ5” value in the test on HT-29 (αvβ5) is reported as “no blocking activity”. Besides, the “selectivity for the αvβ3 integrin, in words” value at HUVEC (αvβ3) was “selective antagonists of the αvβ3 integrin”.

For the origin of these results see patent publication EP2457593A1, “Cyclic RGD peptides of amino acids based on thiazoles or oxazoles as selective antagonists of the alpha-v beta-3 integrin” (Lykera Biomed S.A., priority 2010, dated 2012).
